Reference: the NIST ThermoML archive (doi:10.1021/acs.jced.7b01006)

Assay: xn = mol fraction of the nth substance listed
Conditions: 100 kPa, Liquid; for electrical conductivity: Alternating current cell with electrodes; for viscosity: Falling or rolling sphere viscometry; for mass density: Vibrating tube method

CCC[n+]1ccn(C)c1C.N#C[S-] [1,2-dimethyl-3-propylimidazolium thiocyanate] + CC#N
Conditions	electrical conductivity [S/m]	mass density [kg/m3]	viscosity [mPa·s]
288.15 K, x1 = 0.1002	5.17	884.48	7.694
288.15 K, x1 = 0.2002	4.31	948.75	16.21
288.15 K, x1 = 0.2998	3.45	996.05	29.71
288.15 K, x1 = 0.4001	2.35	1028.84	51.08
288.15 K, x1 = 0.4997	1.21	1052.44	81.84
288.15 K, x1 = 0.5998	0.95	1067.26	120.8
288.15 K, x1 = 0.7002	0.685	1077.84	166.5
288.15 K, x1 = 0.7999	0.496	1085.72	215
288.15 K, x1 = 0.8999	0.378	1093.78	264.8
288.15 K, x1 = 1	0.255	1099.81	316.5
293.15 K, x1 = 0.1002	5.5	880.24	5.454
293.15 K, x1 = 0.2002	4.67	945.16	11.9
293.15 K, x1 = 0.2998	3.84	992.52	22.12
293.15 K, x1 = 0.4001	2.64	1025.75	37.64
293.15 K, x1 = 0.4997	1.46	1049.28	58.62
293.15 K, x1 = 0.5998	1.16	1064.44	85.72
293.15 K, x1 = 0.7002	0.883	1075.11	117.1
293.15 K, x1 = 0.7999	0.639	1083.11	150.3
293.15 K, x1 = 0.8999	0.478	1090.97	183.5
293.15 K, x1 = 1	0.361	1096.75	215.8
298.15 K, x1 = 0.1002	5.83	876.09	3.864
298.15 K, x1 = 0.2002	5.05	941.45	8.717
298.15 K, x1 = 0.2998	4.27	988.89	16.33
298.15 K, x1 = 0.4001	2.98	1022.71	27.66
298.15 K, x1 = 0.4997	1.72	1046.39	42.09
298.15 K, x1 = 0.5998	1.4	1061.68	60.63
298.15 K, x1 = 0.7002	1.08	1072.2	82.01
298.15 K, x1 = 0.7999	0.789	1080.57	105
298.15 K, x1 = 0.8999	0.589	1088.08	128.8
298.15 K, x1 = 1	0.459	1093.67	151.9
303.15 K, x1 = 0.1002	6.16	871.55	2.697
303.15 K, x1 = 0.2002	5.43	937.88	6.468
303.15 K, x1 = 0.2998	4.71	985.24	12.26
303.15 K, x1 = 0.4001	3.36	1019.65	20.36
303.15 K, x1 = 0.4997	2.01	1043.41	30.78
303.15 K, x1 = 0.5998	1.67	1058.77	44.13
303.15 K, x1 = 0.7002	1.32	1069.41	59.49
303.15 K, x1 = 0.7999	0.973	1077.79	76.35
303.15 K, x1 = 0.8999	0.72	1085.29	93.37
303.15 K, x1 = 1	0.583	1090.61	110.1
308.15 K, x1 = 0.1002	6.49	867.37	1.998
308.15 K, x1 = 0.2002	5.83	934.26	4.904
308.15 K, x1 = 0.2998	5.16	981.65	9.381
308.15 K, x1 = 0.4001	3.77	1016.47	15.33
308.15 K, x1 = 0.4997	2.35	1040.37	22.87
308.15 K, x1 = 0.5998	1.98	1055.91	32.68
308.15 K, x1 = 0.7002	1.59	1066.65	43.59
308.15 K, x1 = 0.7999	1.18	1075.33	55.98
308.15 K, x1 = 0.8999	0.874	1082.59	69.61
308.15 K, x1 = 1	0.733	1087.57	83.42
313.15 K, x1 = 0.1002	6.81	862.96	1.461
313.15 K, x1 = 0.2002	6.22	930.69	3.715
313.15 K, x1 = 0.2998	5.62	978.11	7.289
313.15 K, x1 = 0.4001	4.18	1013.36	11.81
313.15 K, x1 = 0.4997	2.71	1037.38	17.46
313.15 K, x1 = 0.5998	2.31	1053.06	24.53
313.15 K, x1 = 0.7002	1.88	1063.86	32.94
313.15 K, x1 = 0.7999	1.42	1072.65	42.28
313.15 K, x1 = 0.8999	1.06	1079.86	53.18
313.15 K, x1 = 1	0.905	1084.55	64.78
318.15 K, x1 = 0.1002	7.13	858.59	1.077
318.15 K, x1 = 0.2002	6.61	927.1	2.907
318.15 K, x1 = 0.2998	6.1	974.43	5.635
318.15 K, x1 = 0.4001	4.61	1010.2	9.215
318.15 K, x1 = 0.4997	3.11	1034.36	13.52
318.15 K, x1 = 0.5998	2.67	1050.24	18.99
318.15 K, x1 = 0.7002	2.22	1060.96	25.5
318.15 K, x1 = 0.7999	1.69	1069.97	32.82
318.15 K, x1 = 0.8999	1.26	1077.03	41.2
318.15 K, x1 = 1	1.1	1081.54	50.96
323.15 K, x1 = 0.1002	7.45	854.24	0.775
323.15 K, x1 = 0.2002	7.01	923.56	2.285
323.15 K, x1 = 0.2998	6.58	970.89	4.456
323.15 K, x1 = 0.4001	5.05	1006.99	7.216
323.15 K, x1 = 0.4997	3.52	1031.23	10.53
323.15 K, x1 = 0.5998	3.08	1047.39	14.68
323.15 K, x1 = 0.7002	2.6	1060	19.99
323.15 K, x1 = 0.7999	2	1070	25.88
323.15 K, x1 = 0.8999	1.5	1074.33	33.37
323.15 K, x1 = 1	1.33	1078.54	41.55
